Data taken from patent US5459256A, “Lipophilic, aminohydrolase-activated prodrugs” (priority 1991, dated 1995).
Entries after “also recorded” stand apart in the source; their conditions may differ. Where two headings read alike, the source gives them in different places. Each block holds one molecule with its values, some of them ahead of it.

Tests used:
[1] = Octanol-water partition coefficient, microscale shake-flask
Description: Measurement of Octanol-Water Partition Coefficients.
n-Octanol-water partition coefficients (P) were determined by a microscale shake-flask procedure, (Ford, H. et al Abstracts of Papers, 200th National Meeting of the American Chemical Society, Washington, D.C.; American Chemical Society: Washington, D.C., 1990; CARB 13) which was modification of an earlier method (Nahum, A. & Horvath, C. J. Chromatogr. 1980, 192, 315). A 20 μL aliquot of a 0.5 mg/mL DMSO solution of the dideoxynucleoside was dissolved in 1.0 mL of octanol-saturated, pH 7.0, 0.01M potassium phosphate buffer. This was mixed thoroughly with 1.0 ml of buffer-saturated n-octanol in a 2-mL Mixxor apparatus at 24°-26° C. and then allowed to stand for 15 min. The phases were separated, centrifuged at 600×g for 5 min, and the relative concentration of sample in each phase determined by HPLC analysis of a 50 μl aliquot. The partition coefficient was calculated by dividing the absolute area of the appropriate integrated peak from the octanol phase by that of the buffer phase (Table I).
Octanol/pH 7.0 buffer partition coefficients were determined using a newly developed microscale method. […] The addition of a methyl group normally increases the log P value of a compound by about 0.5.

[2] = tested on: HIV-1/IIIB (CD4^+ ATH8 cells); assay: HIV cytopathic effect inhibition assay in ATH8 cells (% protection); assay type: cell-based; settings: for anti-HIV activity (in words): no additive
Description: (§1) HIV Cytopathic Effect Inhibition Assay.
(§2) The HIV cytopathic effect inhibition assay was performed as previously described. (Mitsuya, H. & Broder, S. Proc. Nat. Acad. Sci. USA 1986, 83, 1911) Briefly, 200,000 target CD4^+ ATH8 cells were exposed to cell-free HIV-1/IIIB at a dose of 43 (or 1087 for compound 1g) TCID50 (50% tissue culture infectious dose) for 1 h, resuspended in 2 ml of fresh culture media containing interleukin 2, and cultured at 37° C. with or without test compounds in 5% CO2 -containing humidified air. On day 8 in culture, the viable cells were counted by using the dye exclusion method. All compounds, including inactives, were evaluated a minimum of two times in separate experiments. Data reported in Table II are from representative tests. The % protection against the virus was determined by the following formula: 100 times [(the number of viable cells exposed to HIV-1 and cultured in the presence of the compound minus the number of viable cells exposed to HIV-1 and cultured in the absence of compound) divided by (the number of viable cells cultured alone minus the number of viable cells exposed to HIV-1 and cultured in the absence of the compound)]. The % toxicity of a compound on the target cells was determined by the following formula: 100 times [1 minus (the number of total viable cells cultured in the presence of the compound divided by the number of total viable cells cultured alone)]. Calculated percentages equal to or less than zero are expressed as 0%.
^a ATH8 cells were exposed to HIV1/IIIB per cell for 1 hr and
cultured in the presence of various concentrations of each compound. On
day 8, the total viable cells were counted. Orders of numbers in the
column for concentrations correspond to the orders of numbers in other

[3] = Toxicity on ATH8 target cells (% toxicity, dye exclusion); assay type: cell-based; settings: human, ath8 cells
Description: as §1
as §2, with “(Mitsuya, H. & Broder, S. Proc. Nat. Acad. Sci. USA 1986, 83, 1911) Briefly, 200,000 target CD4^+ ATH8 cells were exposed to cell-free HIV-1/IIIB at a dose of 43 (or 1087 for compound 1g) TCID50 (50% tissue culture infectious dose) for 1 h, resuspended in 2 ml of fresh culture media containing interleukin 2, and cultured at 37° C. with or without test compounds in 5% CO2 -containing humidified air.” left out

CD4^+ ATH8 cells = assay: as above; assay type: cell-based; settings: for % Toxicity: human
Description: as §1
as §2, with “(Mitsuya, H. & Broder, S. Proc. Nat. Acad. Sci. USA 1986, 83, 1911) Briefly, 200,000 target CD4^+ ATH8 cells were exposed to cell-free HIV-1/IIIB at a dose of 43 (or 1087 for compound 1g) TCID50 (50% tissue culture infectious dose) for 1 h, resuspended in 2 ml of fresh culture media containing interleukin 2, and cultured at 37° C. with or without test compounds in 5% CO2 -containing humidified air.” left out

[4] = target: T1, adenosine deaminase (adenosine aminohydrolase, EC 3.5.4.4) (Bos taurus, UniProt P56658); assay: Enzymatic deamination by adenosine deaminase (HPLC)
T1 sequence (P56658 1-363): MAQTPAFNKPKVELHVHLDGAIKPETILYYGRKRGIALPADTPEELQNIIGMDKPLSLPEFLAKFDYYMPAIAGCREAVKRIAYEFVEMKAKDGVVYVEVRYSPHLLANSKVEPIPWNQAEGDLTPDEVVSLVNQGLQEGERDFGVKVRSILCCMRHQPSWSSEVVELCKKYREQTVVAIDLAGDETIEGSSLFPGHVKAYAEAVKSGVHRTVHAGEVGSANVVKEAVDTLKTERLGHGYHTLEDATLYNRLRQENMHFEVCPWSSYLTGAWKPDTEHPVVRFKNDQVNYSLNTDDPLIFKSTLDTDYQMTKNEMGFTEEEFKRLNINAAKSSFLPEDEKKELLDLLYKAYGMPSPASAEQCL
Description: FIG. 1. Deamination of dideoxyadenosine analogues by adenosine deaminase. Hydrolysis kinetics and 2'-F-dd-ara-I formation during the incubation of 50 μM N^6 -CH3 -2'-F-dd-ara-A (1f) with 0.7 units/mL of adenosine deaminase at 37° C. A unit of adenosine deaminase is the amount of enzyme which hydrolyzes a standard substrate (e.g., adenosine) at the rate of 1.0 μmole/min at 25° C. and pH 7.5. […] Insert: Adenosine deaminase hydrolysis kinetics for 50 μM ddA and 2'-F-dd-ara-A. The hydrolysis curve for ddA has been extrapolated from kinetics obtained with 0.07 units/mL of adenosine deaminase under identical conditions.
A 50 μl aliquot of a 10 mg/ml suspension of adenosine deaminase (adenosine aminohydrolase, EC 3.5.4.4) from calf intestinal mucosa was centrifuged at 600×g for 3 min. The residue remaining after removal of the (NH4)2 SO4 supernatant was dissolved in 0.5 ml pH 7.4 tris(hydroxymethyl)-aminomethane (Tris) buffer to give an enzyme solution of 1 mg/ml (274 units/ml). […] A pH 7.4 buffer was prepared by adjusting 0.01M Tris to pH 7.4 with 0.5N HCl, The 1.0 HCl , HPLC-grade acetonitrile, monobasic potassium phosphate, sodium hydroxide and ultrapure Tris were all commercially available and were used without further purification.
Enzymatic Deamination of Adenosine Analogues. […] A 50 μL aliquot of substrate solution was diluted with 0.95 ml 0.01M Tris buffer in a 1.5-mL Eppendorf tube and equilibrated at 37° C. in a Dubnoff metabolic shaking incubator. Reaction was initiated by addition of 2.5 μL of adenosine deaminase solution (0.7 unit). At specified time intervals, a 50 μL aliquot of the reaction mixture was withdrawn and quenched by mixing with 0.45 mL cold 2 μM 2'-deoxycoformycin. This diluted sample was ultrafiltered to remove enzyme in a Centrifree Micropartition unit by centrifugation at 600×g at 4° C. in a high speed refrigerated centrifuge. The decrease in substrate concentration was monitored by HPLC analysis of the resultant ultrafiltrate (see below). The ability of 2'-deoxycoformycin to inhibit deamination under the above conditions was evaluated by adding 2 μL of 1.0 mM inhibitor to diluted substrate solutions at the time of equilibration. Reaction, sampling and analysis were carried out as above. […] Initial hydrolysis rates for each substrate concentration were measured through linear least-squares curve fitting of the concentration versus time data for reaction of the first 10% of substrate. KM and vmax values for each substrate were then determined from a graphical lineweaver-Burke plot of these initial rates (FIG. 1).
HPLC Analysis of Dideoxypurine Nucleosides.
Concentrations of dideoxynucleosides were measured by the HPLC analysis of 100 μL aliquots of ultrafiltered samples. A 4.6×250 mm 5-μm Ultrasphere-ODS column, protected by a Waters guard column packed with 37-50 μm Vydac 201SC, was eluted with 10-20% CH3 CN in 0.01M pH 7.0 phosphate buffer at a flow rate of 1.0 mL/min. Dideoxynucleosides and deamination products were detected at the appropriate wavelength of maximum absorption with a Gilson 116 variable wavelength detector. Peak identity was determined from coincidence of retention times with standards and by comparison of on-the-fly UV spectra obtained with a Perkin-Elmer LC-235 diode array detector. Peak areas and peak heights were measured simultaneously on a Spectra-Physics SP4200 computing integrator.

[5] = octanol/ph 7.0 buffer, pH 7, Log P
[6] = without dCF, read-out: % Toxicity
[7] = octanol/ph 7.0 buffer, pH 7, octanol/pH 7.0 buffer partition coefficient (P)
[8] = additive alone, no test compound

- Log P ([1]; octanol/pH 7.0 buffer, 24°-26° C., Table I mean ± standard deviation of three determinations): 0.05 ± 0.01
Structure (SMILES): Cc1cn([C@H]2C[C@H](N=[N+]=[N-])[C@@H](CO)O2)c(=O)[nH]c1=O [AZT, reference compound]
- partitioning (in words) ([1]; octanol and pH 7.0 buffer): partitions into octanol and pH 7.0 buffer almost equally

- logD [1, 5]: -0.4 ± 0.01
Structure (SMILES): OC[C@@H]1C[C@H](F)[C@H](n2cnc3cncnc32)O1 [Compound 1c, 9-(2',3'-dideoxy-2'-fluoro-β-D-arabinofuranosyl)-9-H-purine]
- anti-HIV activity (in words) ([2]; ATH8 cells): abolished activity

- logD [1, 5]: 0.64 ± 0.01
Structure (SMILES): CNc1nc(C)nc2c1ncn2[C@@H]1O[C@H](CO)C[C@@H]1F [Compound 1e, 2,N^6 -Dimethyl-9-(2',3'-dideoxy-2'-fluoro-β-D-arabinofuranosyl)adenine]
- anti-HIV activity (in words) ([2]; ATH8 cells): the methyl group in the 2-position abolished activity

- logD [1, 5]: 0.1 ± 0.01
Structure (SMILES): Cc1nc2c(N)ncnc2n1[C@@H]1O[C@H](CO)C[C@@H]1F [Compound 1h, 8-Methyl-9-(2',3'-dideoxy-2'-fluoro-β-D-arabinofuranosyl)adenine]

The remaining lines, values behind:

Structure (SMILES): Cc1nc(N)c2ncn([C@@H]3O[C@H](CO)C[C@@H]3F)c2n1 [Compound 1d, 2-methyl-9-(2', 3'-dideoxy-2'-fluoro-β-D-arabinofuranosyl)adenine]
- logD ([1]; octanol/ph 7.0 buffer, pH 7): 0.12 ± 0.02
- anti-HIV activity (in words) ([2]; ATH8 cells): the methyl group in the 2-position abolished activity

Structure (SMILES): O=C(Nc1ncnc2c1ncn2[C@@H]1O[C@H](CO)C[C@@H]1F)c1ccccc1 [Compound 1g, N^6-benzoyl-9-(2',3'-dideoxy-2'-fluoro-β-D-arabinofuranosyl)adenine]
- cytotoxicity at 192 h, 5 µM ([3]; 5 μM, without dCF): 2%
- cytotoxicity at 192 h, 20 µM [3, 6]: 0%
- cytotoxicity at 192 h, 50 µM ([3]; 50 μM, without dCF, read-out: % Toxicity): 0%
- cytotoxicity at 192 h, 100 µM ([3]; 100 μM, without dCF, read-out: % Toxicity): 8%
- Log P ([1]; octanol/ph 7.0 buffer, pH 7): 0.70 ± 0.02
- logD [1, 5]: 0.73
- logD [1, 7]: 0.732
- anti-HIV activity (in words) ([2]; ATH8 cells): preservation of modest activity

Structure (SMILES): OC[C@@H]1C[C@H](F)[C@H](n2cnc3c(Cl)ncnc32)O1 [Compound 1i, 6-Chloro-9-(2',3'-dideoxy-2-fluoro-β-D-arabinofuranosyl)purine]
- % Toxicity (CD4^+ ATH8 cells; 11520 min): 14%
- % Toxicity (CD4^+ ATH8 cells; ath8 cells, 192 h, 50 µM): 56%
- % Toxicity (CD4^+ ATH8 cells; ath8 cells, 192 h, 100 µM): 72%
- cytotoxicity at 192 h, 50 µM ([3]; % Toxicity): 46%
- cytotoxicity at 192 h, 100 µM ([3]; % Toxicity): 52%
- logD ([1]; octanol/ph 7.0 buffer, pH 7): 0.32 ± 0.02
- protection to HIV-infected ATH8 cells ([2]; ATH8 cells, concentration not given): ca. 50%
- anti-HIV activity in the presence of dCF (in words) ([2]; ATH8 cells, dCF added): protection was either abolished or greatly decreased; also recorded: can have activity abolished
- anti-HIV activity (in words) ([2]; ATH8 cells): reproducible, albeit unspectacular, activity; also recorded: only moderate anti-HIV activity
- Measured Relative Rate ([4]; 50 μM substrate, pH 7.4 and 37° C., ddA = 100): 0.06
- vmax ([4]; pH 7.4 and 37° C.): 2.6 × 10^-2 μmol/min/U
- hydrolysis by ADA, times slower than ddA ([4]; vs ddA, 50 μM substrate): ca. 1700 times slower

Structure (SMILES): Nc1c2ncn([C@@H]3O[C@H](CO)C[C@@H]3F)c2nc[n+]1[O-] [Compound 21, 9-(2',3'-Dideoxy-2'-fluoro-β-D-arabinofuranosyl)adenine-1-oxide]
- logD ([1]; octanol/ph 7.0 buffer, pH 7): -1.38
- logD [1, 7]: -1.4
- anti-HIV activity (in words) ([2]; ATH8 cells): abolished activity
- deamination by ADA (in words) ([4]; 0.7 U/mL ADA, 37° C.): no deamination was observed

Structure (SMILES): OC[C@H]1O[C@@H](n2cnc3c2NC=NC[C@H]3O)C[C@@H]1O [dCF, 2'-Deoxycoformycin, reference compound]
- toxicity / viability effect of additive alone (in words) (CD4^+ ATH8 cells; [8]): did not produce significant toxicity
- protection by additive alone (in words) [2, 8]: did not produce significant toxicity or protection of ATH8 cells against the effects of HIV-1

Structure (SMILES): O=c1[nH]cnc2c1ncn2[C@H]1CC[C@@H](CO)O1 [ddI, dideoxyinosine, reference compound]
- cytotoxicity at 192 h, 20 µM [3, 6]: 0%
- inhibition at 20 µM ([2]; Human immunodeficiency virus 1, IIIB, ATH-8, 192 h, 20 μM, without dCF): 100%
